Assay results as given in patent EP1509285B1, “SYNERGISTIC COMPOSITION OF TRANS-TETRACOS-15-ENOIC ACID AND APOCYNIN AND USE THEREOF” (COUNCIL OF SCIENTIFIC AND INDUSTRIAL RESEARCH, priority 2002, dated 2003).

How the values were obtained:
[1] = test system: D-Galactosamine (GAIN) induced hepatic injury; experiment: Hepatoprotective activity (in vivo) against D-Galactosamine induced hepatic injury; details: rats; for Hepatic parameters Glutathione / Hepatic parameters Lipid peroxidation / Serum parameters ALP / Serum parameters Bilirubin / Serum parameters Triglycerides / Serum parameters GOT / Serum parameters GPT: 50 mg kg-1 p.o. at 48 h, 24h, 2 h before and 6 h after GalN 300 mg kg-1 s.c., mean ± S.E.; for Serum parameters GOT / Serum parameters GPT: unit is µmole pyruvate/min/L; for hepatoprotective activity percent, ALP / hepatoprotective activity percent, Bilirubin / hepatoprotective activity percent, GOT / hepatoprotective activity percent, GPT / hepatoprotective activity percent, Glutathione / hepatoprotective activity percent, Lipid peroxidation / hepatoprotective activity percent, Triglycerides: GalN, 50 mg kg-1 p.o., H = [1-(TC-V/VC-V)] × 100
Description: (§1) i. Animals: The pharmacological studies are conducted on Wistar albino rats (150-180g) and Swiss albino mice (25-30g) of either sex, colony - bred in the Institute's animal house. After procurement, all the animals are divided into different groups and are left for one week for acclimatization to experimentation room and are maintained on standard conditions (23±2°C, 60-70 % relative humidity and 12 h photo period). The animals are fed with standard rodents pellet diet and water ad libitum. There are six animals in each group except for general behaviour and acute toxicity studies where ten animals are used in each group.
D-Galactosamine: It is one of the toxins that induce hepatic inflammatory conditions in the rat liver that clinically resembles to viral hepatitis. The mechanism of GalN induced liver injury has been extensively examined and this model is now accepted as one of the authentic systems of liver damage (Bauer et. al., 1974, Al-Tuwaijiri et. al., 1981). (Table1)
Hepatic damage is produced by injecting GalN (300 mg.kg^-1) subcutaneously in normal saline. The control animals received the equal volume of vehicle.
(§2) Freshly prepared suspension (1%, w/v) in 0.2% gum acacia in normal saline is used for all the experiments except for toxicity studies where (10 %, w/v) suspension is used. Silymarin suspension (1%, w/v) in 0.2 % gum acacia is used as a reference standard (positive control).
Blood is collected from orbital sinus in all the animals 18 h after last treatment and serum separated for different estimations. All the animals are then killed by decapitation, their livers are quickly excised, cleaned of adhering tissue, weighed and homogenised in phosphate buffer saline for the analysis of hepatic parameters. A portion of the liver is processed for histopathological studies (Table 1)
(§3) • GPT and GOT: Pyruvate formed by transamination reaction is determined spectrophotometrically after reaction with 2,4-dinitrophenylhydrazine (Reitman and Frankel, 1957). • ALP : p-nitrophenol formed in alkaline medium is measured spectrophotometrically using p-nitrophenyl phosphate as substrate (Walter and Schutt, 1974). • Bilirubin : Total bilirubin is measured by diazotization reaction with NaNO2 (Malloy and Evelyn, 1937) • Triglycerides : Triglycerides from serum are extracted with isopropanol and sopanified with KOH. The liberated glycerol is converted to formaldehyde by periodate and determined after reaction with acetyl acetone. Triolein is used as standard (Neri and Firings, 1973). • Glutathione: It is determined after deproteination by reaction with DTNB (Ellman 1959 as modified by David 1987). • Lipid peroxidation: Thiobarbituric acid reacting substances are determined spectrophotometrically at 535 nm. Buege. and Aust. (1978).
(§4) Hepatoprotective activity (H) is calculated by the following equation: H = [1-(TC-V/VC-V)] × 100 [formula]
(§5) Where TC, VC, and V are drug + toxin, vehicle + toxin and vehicle treated groups of animals respectively.

[2] = test system: 'Acetaminophen' (APAP) induced hepatotoxicity; experiment: Hepatoprotective activity (in vivo) against acetaminophen (paracetamol) induced hepatotoxicity after diethyl-ether inhalation; details: mice; for Serum parameters GOT / Serum parameters GPT: unit is µmole pyruvate/min/L; for hepatoprotective activity percent, ALP / hepatoprotective activity percent, Bilirubin / hepatoprotective activity percent, GOT / hepatoprotective activity percent, GPT / hepatoprotective activity percent, Glutathione / hepatoprotective activity percent, Lipid peroxidation / hepatoprotective activity percent, Triglycerides: APAP, 50 mg kg-1 p.o., H = [1-(TC-V/VC-V)] × 100
Description: as §1
Paracetamol (APAP, acetaminophen): It is a therapeutic agent widely used as analgesic/antipyretic drug. When taken in large doses it causes hepatic necrosis which leads to biochemical changes having clinical features similar to those of acute viral hepatitis. The similar effect is observed in animals. The toxic effect can be potentiated if it is given several hours after the anesthetic ether inhalation (Wells et. al., 1986).
Liver injury is induced by injecting paracetamol (200 mg.kg^-1) interaperitoneally in normal saline (pH 9.4) six hour after inhalation of anesthetic ether (4ml/4min/6animals) in a closed chamber. The control animals received the equal volume of vehicle. (Table 2)
as §2
The doses of TCA and APO individually and in mixture, silymarin (50 mg/kg, p.o. each) and vehicle (normal saline) are fed to different groups of mice at 72 hours, 48 hours and 24 hours, 1 hour before diethyl ether inhalation and 1hour after hepatotoxin (paracetamol, 200 mg.kg^-1, i.p.) given 6 hours after exposure to diethyl- ether. Blood is collected from orbital sinus in all the animals 18 hours after last treatment and serum separated for different estimations. A portion of the liver is processed for histopathological studies. (Table 2)
as §3, §4, §5

[3] = test system: bile flow and bile solids; experiment: Choleretic activity: bile flow and bile solids after bile duct cannulation in normal anaesthetised rats; assay type: in vivo; details: 50 mg kg-1 i.d., bile collected 0-5 hours, mean ±SE
Text: The liver, by producing bile, plays an important role in digestion. The presence of bile in the intestine is necessary to accomplish the digestion and absorption of fats as well as absorption of the fat-soluble vitamins- A, D, E & K. Bile is also an important vehicle of excretion. It removes many drugs, toxins, bile pigments and various inorganic substances either derived from the diet or synthesized by the body as cholesterol or as cholic acid.
Effect on the liver bile flow of test drug and that of vehicle is carried out after cannulating the bile duct in normal anaesthesied rats. Bile collected is from each animal from 0-5 hours (Klaassen, 1969, Donal et al.1953). (Table 5)

[4] = 50 mg kg-1 p.o. at 72 h, 48 h, 24 h, 1h before diethyl-ether and 1 h after APAP 200 mg kg-1 i.p., mean ± S.E.

Row | SMILES | Hepatic parameters Glutathione [1] | Hepatic parameters Lipid peroxidation [1] | Serum parameters ALP [1] | Serum parameters Bilirubin [1] | Serum parameters Triglycerides [1] | Serum parameters GOT [1] | Serum parameters GPT [1] | hepatoprotective activity percent, ALP [1] | hepatoprotective activity percent, Bilirubin [1] | hepatoprotective activity percent, GOT [1] | hepatoprotective activity percent, GPT [1] | hepatoprotective activity percent, Glutathione [1] | hepatoprotective activity percent, Lipid peroxidation [1] | hepatoprotective activity percent, Triglycerides [1] | Hepatic parameters Glutathione [2, 4] | Serum parameters ALP [2, 4] | Serum parameters Bilirubin [2, 4] | Serum parameters Triglycerides [2, 4] | Serum parameters GOT [2, 4] | Serum parameters GPT [2, 4] | further results
1 | COc1cc(C(C)=O)ccc1O [APO, Apocynin] | 4.52±0.49 µ mole GSH/g liver | 48.71±3.69 n moles MDA/g liver | 37.73±1.64 µ mole of p-nitrophenol formed/min/ L | 0.41±0.02 mg % | 31.85±3.74 mg % | 509.33±41.63 Units | 859.18±50.51 Units | (68.76) percent | (41.66) percent | (38.42) percent | (46.59) percent | (21.51) percent | (39.93) percent | (42.95) percent | 4.60±0.42 µ mole GSH/g liver | 29.71±1.89 µ mole of p-nitroplenol formed/min/ L | 0.43±0.01 mg % | 30.50±1.36 mg % | 755.04±112.04 Units | 1334.72±98.34 Units | Hepatic parameters Lipid peroxidation [2, 4]: 48.32±2.13 n moles MDA/g liver; hepatoprotective activity percent, ALP [2]: (67.91) percent; hepatoprotective activity percent, Bilirubin [2]: (42.59) percent; hepatoprotective activity percent, GOT [2]: (36.07) percent; hepatoprotective activity percent, GPT [2]: (42.27) percent; hepatoprotective activity percent, Glutathione [2]: (42.60) percent; hepatoprotective activity percent, Lipid peroxidation [2]: (38.34) percent; hepatoprotective activity percent, Triglycerides [2]: (36.68) percent; Bile parameters % Increase (as compared to normal) Bile flow [3]: 27.39±2.05 ml%; Bile parameters % Increase (as compared to normal) Bile solids [3]: 24.05±2.76 mg%
2 | CCCCCCCC/C=C/CCCCCCCCCCCCCC(=O)O [TCA, trans-tetracos-15-enoic acid] | 5.39±0.43 µ mole GSH/g liver | 42.12±3.93 n moles MDA/g liver | 44.16±2.87 µ mole of p-nitrophenol formed/min/ L | 0.29±0.03 mg % | 29.78±2.82 mg % | 421.64±30.36 Units | 758.59±40.86 Units | (59.67) percent | (66.66) percent | (52.03) percent | (53.74) percent | (38.84) percent | (59.35) percent | (50.99) percent | 4.59±0.45 µ mole GSH/g liver | 34.95±1.89 µ mole of p-nitroplenol formed/min/ L | 0.355±0.01 mg % | 23.53±1.77 mg % | 561.83±51.52 Units | 1008.04±63.66 Units | hepatoprotective activity percent, ALP [2]: (52.96) percent; hepatoprotective activity percent, Bilirubin [2]: (56.48) percent; hepatoprotective activity percent, GOT [2]: (54.92) percent; hepatoprotective activity percent, GPT [2]: (57.99) percent; hepatoprotective activity percent, Glutathione [2]: (42.35) percent; hepatoprotective activity percent, Lipid peroxidation [2]: (55.48) percent; hepatoprotective activity percent, Triglycerides [2]: (66.05) percent; Bile parameters % Increase (as compared to normal) Bile flow [3]: 08.23±1.71 ml%; Bile parameters % Increase (as compared to normal) Bile solids [3]: 13.40±1.53 mg%
